# Measured values: publication PMC6264499, “In silico identification and experimental validation of hits active against KPC-2 β-lactamase” (PLoS ONE, 2018)
# Tests used:
# recombinant KPC-2 [1] = biological target: T1, recombinant KPC-2 (Klebsiella pneumoniae, UniProt Q9F663); test: KPC-2 inhibition assay, CENTA as reporter substrate; format: biochemical; conditions: for fold less active than 9a: IC50 vs KPC-2 relative to compound 9a
# T1 construct: made in house; host or cells: E. coli BL21 (DE3)
# Procedure: (§1) The blaKPC-2 gene was kindly provided by Prof. Sergei Vakulenko (University of Notre Dame du Lac, Indiana, USA) and cloned as already reported and transformed into competent E.coli BL21 (DE3) cells for protein expression. 50 mL of Tryptic Soy Broth (TSB) (50 mg/L kanamycin) were inoculated with fresh colonies and grown at 37°C. 4 mL of the overnight culture was used to inoculate 1.3 L of TSB (50 mg/L kanamycin) grown at 37°C with shaking to an optical density of 0.5 measured at 600 nm. Then expression of recombinant bla gene was induced by adding 1.0 mM IPTG (isopropyl-D-thiogalactopyranoside) and the cells were again allowed to grow at 20°C overnight. Bacteria were harvested by centrifugation at 4000 rpm for 20 minutes. The pelleted cells were resuspended in Tris-HCl 50 mM pH 7.4–7.5. Periplasmatic proteins were extracted as reported in the pET System Manual (TB055 10th Edition Rev. B 0403) and subsequently dialyzed in sodium acetate buffer (50 mM, pH 5.0). The protein was conveniently purified in a single step using a Macro-Prep High S resin and eluted using sodium acetate 50 mM pH 5.0 and a sodium chloride (NaCl) linear gradient from 100 to 500 mM. The purified protein was dialyzed overnight in sodium phosphate buffer 50 mM, pH 7.0 [31, 32].
# (§2) The hydrolytic activity of KPC-2 was measured using the β-lactam substrates CENTA (100 uM, KM 70 uM) or nitrocefin (114 uM, KM 36 μM) in reaction buffer consisting of 50 mM of PB at pH 7.0 at 25°C with 0.01% v/v Triton X-100 to avoid compound aggregation and promiscuous inhibition.[33] Reactions were monitored using a Beckmann DU640 spectrophotometer at […] for CENTA and 480 nm wavelength for nitrocefin [34]. The test compounds were synthesized as described below or purchased from Enamine, TimTec, Vitas-M, ChemBridge, Otava, Life Chemicals or Apollo Scientific and assayed without further purification. Compounds were dissolved in dimethyl sulfoxide (DMSO) to a concentration of 25 mM and stored at -20°C. The highest concentration at which the compounds were tested was up to 1 mM (depending on their solubility). All experiments were performed in duplicate and the error never exceeded 5%. The reaction was typically initiated by adding KPC-2 to the reaction buffer last. To control for incubation effects, protein was added to the reaction buffer first, and the reaction was initiated by the addition of reporter substrate after 10 minutes of enzyme-compound incubation.
# Fig 4 Inhibitory activity of compounds selected from virtual screening. ^[a]Assays were performed in duplicate (errors were less than 5%) with CENTA as reporter substrate (100 μM, km 70 μM). Kinetic were monitored at 25° by following the absorbance variation at λ = 405 nm. ^[b] If no IC50 has been measured, percent inhibition at the highest tested concentration is given in parentheses. For example, > 0.50 (26%) implies that the highest concentration tested was 0.50 mM; at this concentration, the enzyme was inhibited by 26%. Therefore, IC50> 0.50 mM. When % Inhibition was below 10% No Inibition (NI) is reported. ^[c]Assays were run after 10’ incubation of the inhibitor with KPC-2. Reaction was started by the addition of CENTA. […] 0 (11) | 32a: IC50 mM ^[a,b]: 1.24
# Competitive inhibition mechanism and the Ki for compound 9a was determined by Lineweaver–Burk (LB) and Dixon plots.
# Kpn 53A8 = test: MIC of meropenem, alone or 1:1 with compounds, KPC-2 clinical strain; format: cell-based, K. pneumoniae; conditions: strain Kpn 53A8
# Procedure: The antimicrobial activity of the best hits 9a and 11a and their derivatives was studied in bacterial cell cultures to investigate their ability to cross the outer membrane reaching the periplasmic space, where KPC-2 is secreted and confined in Gram negative bacteria. Compounds were tested for synergy with the β-lactam antibiotic meropenem against four K. pneumoniae clinical strains, isolated from different patients at the Hospital Universitario Son Espases, Palma de Mallorca, Spain. […] The three additional strains harbored the blaKPC-2 gene and were resistant to meropenem (Table 2). […] However, against strain Kpn 53A8 the MIC value was lowered by a factor of two when meropenem was combined with compounds 32a, 1b, 2b, 5b and 6b while in combination with compound 11a the MIC value was reduced by 4 fold.
# recombinant KPC-2 [2] = biological target: T1, recombinant KPC-2; test: KPC-2 inhibition assay, nitrocefin as reporter substrate; format: biochemical; conditions: for IC50: nitrocefin 114.28 μM (Km 36 μM), 25°, 485 nm
# Procedure: as §1, §2
# Kinetic were monitored at 25° by following the absorbance variation at λ = 485 nm. ^[b] If no IC50 has been measured, percent inhibition at the highest tested concentration is given in parentheses. […] When % Inhibition was below 10% No Inhibition (NI) is reported. TEXT PRINTED IN THE PICTURE: 11a: IC50 mM [a,b]: 0.036 | 1b: IC50 mM [a,b]: > 0.2 (25) | 2b: IC50 mM [a,b]: >0.6 (23) | 3b: IC50 mM [a,b]: Not tested not soluble | 4b: IC50 mM [a,b]: > 0.2 (16) | 5b: IC50 mM [a,b]: > 0.2 (13) | 6b: IC50 mM [a,b]: NI at 0.2 | 7b: IC50 mM [a,b]: >1.0 (30) | 8b: IC50 mM [a,b]: > 1.0 (37) | 9b: IC50 mM [a,b]: NI at 0.5 | 10b: IC50 mM [a,b]: NI at 0.5 | 11b: IC50 mM [a,b]: > 1.0 (37) | 12b: IC50 mM [a,b]: NI at 0.5 | 13b: IC50 mM [a,b]: NI at 0.5 | 14b: IC50 mM [a,b]: >500 (20) DOUBTS OF THE COPYIST ABOUT THIS PICTURE: column head: raised note printed very small, read as [a,b]
# [3] = read-out: percent inhibition at the highest tested concentration
# [4] = CENTA 100 μM (km 70 μM), 25°, 405 nm, no pre-incubation, read-out: IC50
# [5] = CENTA 100 μM, after 10' incubation of the inhibitor with KPC-2, read-out: IC50
# T1 sequence (Q9F663 25-293, looked up): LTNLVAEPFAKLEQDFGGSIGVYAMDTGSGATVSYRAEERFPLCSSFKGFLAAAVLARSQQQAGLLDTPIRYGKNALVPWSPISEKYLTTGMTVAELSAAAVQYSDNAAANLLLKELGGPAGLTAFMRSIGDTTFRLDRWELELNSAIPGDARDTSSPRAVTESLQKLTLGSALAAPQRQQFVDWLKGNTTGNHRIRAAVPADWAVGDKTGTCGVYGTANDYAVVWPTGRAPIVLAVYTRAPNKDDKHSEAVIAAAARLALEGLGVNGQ
compound,measurement,setting,value
CCS(=O)(=O)Nc1cc(-c2ccncc2)n[nH]1 [22a],inhibition at 1000 µM,recombinant KPC-2 [1]; [3],< 10%
Cc1n[nH]c(C)c1/C=C/c1cc(C(=O)O)ncn1 [24a],IC50,recombinant KPC-2 [1]; [4],> 100 µM
same,inhibition at 100 µM,recombinant KPC-2 [1]; [3],41%
Cc1nn(CC(=O)O)c2[nH]c(=O)cc(C(F)F)c12 [16a],IC50,recombinant KPC-2 [1]; [4],> 1000 µM
same,inhibition at 1000 µM,recombinant KPC-2 [1]; [3],17%
COc1ccc(NS(C)(=O)=O)cc1 [5a],IC50,recombinant KPC-2 [1]; [4],> 500 µM
same,inhibition at 500 µM,recombinant KPC-2 [1]; [3],13%
"O=C(Nc1cccc(-c2nnn[nH]2)c1)c1cccc(F)c1 [11a, N-(3-(1H-tetrazol-5-yl)phenyl)-3-fluorobenzamide]",IC50,recombinant KPC-2 [1]; [5],36 µM
same,Ki,"recombinant KPC-2 [1]; Cheng-Prusoff equation from IC50, assuming competitive inhibition, read-out: Ki (calculated)",14.8 µM
same,ligand efficiency (LE),recombinant KPC-2 [1]; vs KPC-2,0.28 kcal/mol/non-hydrogen atom
same,mode of inhibition,recombinant KPC-2 [1]; vs KPC-2,competitive inhibitors
same,fold reduction of meropenem MIC in combination with compound,Kpn 53A8,4 fold
CC(=O)Nc1cccc(-c2nnn[nH]2)c1 [8a],IC50,recombinant KPC-2 [1]; [4],> 500 µM
same,inhibition at 500 µM,recombinant KPC-2 [1]; [3],37%
COc1ccc2nc(N)sc2c1 [32a],fold less active than 9a,recombinant KPC-2 [1],8 fold
same,fold reduction of meropenem MIC in combination with compound,Kpn 53A8,two
Cc1c(-c2cc(C(=O)O)no2)cnn1C [3a],IC50,recombinant KPC-2 [1]; [4],> 250 µM
same,inhibition at 250 µM,recombinant KPC-2 [1]; [3],13%
COCc1nc2cc(NS(C)(=O)=O)ccc2o1 [21a],IC50,recombinant KPC-2 [1]; [4],> 1000 µM
same,inhibition at 1000 µM,recombinant KPC-2 [1]; [3],12%
Cn1nccc1-c1cc(C(=O)O)n[nH]1 [27a],inhibition at 500 µM,recombinant KPC-2 [1]; [3],< 10%
O=C(NCc1nnnn1-c1ccccc1)c1cccnc1O [25a],IC50,recombinant KPC-2 [1]; [4],> 400 µM
same,inhibition at 400 µM,recombinant KPC-2 [1]; [3],26%
O=S(=O)(Nc1cccc(-c2nnn[nH]2)c1)c1ccc(S(=O)(=O)N2CCCC2)cc1 [10b],inhibition at 500 µM,recombinant KPC-2 [2]; [3],< 10%
O=C(NC1CC1)c1ccc(-c2nnn[nH]2)cc1 [18a],IC50,recombinant KPC-2 [1]; [4],> 1000 µM
same,inhibition at 1000 µM,recombinant KPC-2 [1]; [3],18%
CN(Cc1cnccn1)Cc1cccc(C(=O)O)n1 [23a],IC50,recombinant KPC-2 [1]; [5],> 1000 µM
same,inhibition at 1000 µM,recombinant KPC-2 [1]; [3],26%
CCOc1cc(C(=O)O)nc2ccc(OC)cc12 [20a],IC50,recombinant KPC-2 [1]; [5],> 500 µM
same,inhibition at 500 µM,recombinant KPC-2 [1]; [3],28%
NS(=O)(=O)c1ccc(Cl)c(S(=O)(=O)Nc2cccc(-c3nnn[nH]3)c2)c1 [13b],inhibition at 500 µM,recombinant KPC-2 [2]; [3],< 10%
Cn1cc(-c2cc(C(=O)O)no2)cn1 [4a],IC50,recombinant KPC-2 [1]; [4],> 250 µM
same,inhibition at 250 µM,recombinant KPC-2 [1]; [3],12%
COc1ccc2[nH]nc(C(=O)O)c2c1 [1a],IC50,recombinant KPC-2 [1]; [4],> 330 µM
same,inhibition at 330 µM,recombinant KPC-2 [1]; [3],30%
Cc1nn(CC(=O)O)c2nccc(-c3cnn(C)c3)c12 [26a],IC50,recombinant KPC-2 [1]; [4],> 830 µM
same,inhibition at 830 µM,recombinant KPC-2 [1]; [3],18%
Cn1c(=O)c2n[nH]c(=O)nc2n(C)c1=O [14a],IC50,recombinant KPC-2 [1],> 1000 µM
same,inhibition at 1000 µM,recombinant KPC-2 [1]; [3],26%
"CC(=O)Nc1ccc(S(=O)(=O)Nc2cccc(-c3nnn[nH]3)c2)cc1 [4b, N-(4-(N-(3-(1H-tetrazol-5-yl)phenyl)sulfamoyl)phenyl)acetamide]",IC50,recombinant KPC-2 [2],> 200 µM
same,inhibition at 200 µM,recombinant KPC-2 [2]; [3],16%
O=c1ccc(O)nn1-c1nnn[nH]1 [17a],IC50,recombinant KPC-2 [1]; [4],> 1000 µM
same,inhibition at 1000 µM,recombinant KPC-2 [1]; [3],23%
COc1ccc2nc(C(=O)O)[nH]c2c1 [19a],IC50,recombinant KPC-2 [1]; [4],880 µM
same,fold less active than 9a,recombinant KPC-2 [1],6 fold
O=S(=O)(/C=C/c1cccc(Br)c1)Nc1cccc(-c2nnn[nH]2)c1 [7b],IC50,recombinant KPC-2 [2],> 1000 µM
same,inhibition at 1000 µM,recombinant KPC-2 [2]; [3],30%
O=C(Nc1cccc(-c2nn[nH]n2)c1)c1cccs1 [10a],IC50,recombinant KPC-2 [1]; [5],70 µM
Cc1nc2cc(S(=O)(=O)Nc3cccc(-c4nnn[nH]4)c3)ccc2n1-c1ccccc1 [11b],IC50,recombinant KPC-2 [2],> 1000 µM
same,inhibition at 1000 µM,recombinant KPC-2 [2]; [3],37%
O=c1c2ccc(S(=O)(=O)Nc3cccc(-c4nnn[nH]4)c3)cc2nc2n1CCCCC2 [12b],inhibition at 500 µM,recombinant KPC-2 [2]; [3],< 10%
Cc1c(Br)cc(S(=O)(=O)Nc2cccc(-c3nnn[nH]3)c2)cc1[N+](=O)[O-] [9b],inhibition at 500 µM,recombinant KPC-2 [2]; [3],< 10%
Brc1cc2c(cc1-c1nnn[nH]1)OCO2 [12a],IC50,recombinant KPC-2 [1]; [5],700 µM
O=S(=O)(Nc1cccc(-c2nnn[nH]2)c1)c1ccc(C(F)(F)F)cc1 [14b],IC50,recombinant KPC-2 [2],> 500 µM
CCOc1ccc(NS(C)(=O)=O)cc1 [7a],IC50,recombinant KPC-2 [1]; [4],> 1000 µM
same,inhibition at 1000 µM,recombinant KPC-2 [1]; [3],12%
O=C(O)Cc1c[nH]c2ncnn2c1=O [30a],inhibition at 1000 µM,recombinant KPC-2 [1]; [3],< 10%
COc1ccc(-c2cn[nH]c2C(=O)O)c(OC)c1 [2a],IC50,recombinant KPC-2 [1]; [4],> 500 µM
same,inhibition at 500 µM,recombinant KPC-2 [1]; [3],38%
CS(=O)(=O)Nc1ccc2oc(=O)sc2c1 [31a],IC50,recombinant KPC-2 [1]; [4],> 1000 µM
same,inhibition at 1000 µM,recombinant KPC-2 [1]; [3],11%
NC(=O)c1ccc(-c2nnn[nH]2)cc1 [13a],inhibition at 250 µM,recombinant KPC-2 [1]; [3],< 10%
CS(=O)(=O)Nc1ccc(C(N)=O)cc1 [6a],IC50,recombinant KPC-2 [1]; [4],> 1000 µM
same,inhibition at 1000 µM,recombinant KPC-2 [1]; [3],18%
Cc1nn(CC(=O)O)c(C)c1NS(=O)(=O)CC(F)(F)F [29a],IC50,recombinant KPC-2 [1]; [4],> 1000 µM
same,inhibition at 1000 µM,recombinant KPC-2 [1]; [3],15%
CC(C)S(=O)(=O)Nc1ccc2c(c1)C(=O)N(C)CCO2 [15a],IC50,recombinant KPC-2 [1]; [4],> 660 µM
same,inhibition at 660 µM,recombinant KPC-2 [1]; [3],38%
COc1cc(OC)c2cc(C(=O)O)nnc2c1 [28a],IC50,recombinant KPC-2 [1]; [4],> 500 µM
same,inhibition at 500 µM,recombinant KPC-2 [1]; [3],14%
Cc1cc(C(=O)O)cc(S(=O)(=O)Nc2cccc(-c3nnn[nH]3)c2)c1C [8b],IC50,recombinant KPC-2 [2],> 1000 µM
same,inhibition at 1000 µM,recombinant KPC-2 [2]; [3],37%
